These results are taken from ChEMBL document CHEMBL4396887, “Five-Membered N-Heterocyclic Scaffolds as Novel Amino Bioisosteres at γ-Aminobutyric Acid (GABA) Type A Receptors and GABA Transporters” (J Med Chem, 2019).

Common to all, as to format: cell-based
The target in test [1] is T1, Gamma-aminobutyric acid receptor subunit rho-1 (Homo sapiens, UniProt P24046). The test is described as follows: Agonist activity at recombinant human GABA-A rho-1 receptor transiently expressed in human tsA201 cells incubated for 30 mins and measured up to 90 secs by FMP dye based FLIPR membrane potential blue assay.
A short description of another test: cells. Particulars: Homo sapiens, tsA201, 0.5 h.
Another test is filed under the species Homo sapiens. The test is described as follows: Agonist activity at recombinant human GABA-A alpha3beta2gamma2S receptor transiently expressed in human tsA201 cells assessed as GABA-induced maximum response incubated for 30 mins and measured up to 90 secs by FMP dye based FLIPR membrane potential blue assay relative to GABA.
The target in test [2] is Gamma-aminobutyric acid receptor subunit alpha-5/beta-2/gamma-2 (Homo sapiens) (UniProt P47870+P18507+P31644). The test is described as follows: Agonist activity at recombinant human GABA-A alpha5beta2gamma2S receptor transiently expressed in human tsA201 cells assessed as GABA-induced maximum response incubated for 30 mins and measured up to 90 secs by FMP dye based FLIPR membrane potential blue assay relative to GABA.

Test [3] addresses T1, Gamma-aminobutyric acid receptor subunit rho-1. As to the kind of experiment: Agonist activity at recombinant human GABA-A rho-1 receptor transiently expressed in human tsA201 cells assessed as GABA-induced maximum response incubated for 30 mins and measured up to 90 secs by FMP dye based FLIPR membrane potential blue assay relative to GABA.
The target in test [4] is T2, Sodium- and chloride-dependent GABA transporter 2 (Homo sapiens, UniProt Q9NSD5).
T2 sequence (Q9NSD5 whole entry): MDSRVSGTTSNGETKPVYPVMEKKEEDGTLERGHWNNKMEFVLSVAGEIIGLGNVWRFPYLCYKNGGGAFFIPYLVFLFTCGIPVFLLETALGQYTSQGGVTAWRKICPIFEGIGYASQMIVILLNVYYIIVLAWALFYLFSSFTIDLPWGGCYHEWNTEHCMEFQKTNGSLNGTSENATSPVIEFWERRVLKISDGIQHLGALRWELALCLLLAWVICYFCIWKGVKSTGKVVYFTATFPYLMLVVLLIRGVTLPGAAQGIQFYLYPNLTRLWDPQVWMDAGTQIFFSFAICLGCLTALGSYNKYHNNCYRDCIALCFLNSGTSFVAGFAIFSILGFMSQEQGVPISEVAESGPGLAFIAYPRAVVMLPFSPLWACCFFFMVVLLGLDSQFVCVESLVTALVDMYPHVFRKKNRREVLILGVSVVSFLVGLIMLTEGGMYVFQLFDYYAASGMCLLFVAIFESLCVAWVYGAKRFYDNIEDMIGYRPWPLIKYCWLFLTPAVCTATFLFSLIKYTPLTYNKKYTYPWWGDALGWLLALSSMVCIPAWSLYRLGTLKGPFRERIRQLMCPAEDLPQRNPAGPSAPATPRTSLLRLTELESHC
The test is described as follows: Inhibition of human GAT2 expressed in Flp-In CHO cells assessed as reduction in [3H]GABA uptake incubated for 3 mins by liquid scintillation counting method.

Test [5] addresses Sodium- and chloride-dependent GABA transporter 1 (Homo sapiens, UniProt P30531). As to the kind of experiment: Inhibition of human GAT1 expressed in Flp-In CHO cells assessed as reduction in [3H]GABA uptake at 100 uM incubated for 3 mins by liquid scintillation counting method relative to control.
Test [6] concerns the target T3, Sodium- and chloride-dependent GABA transporter 2 (Homo sapiens) (UniProt Q9NSD5).
T3 sequence (whole entry): T2 sequence (Q9NSD5 whole entry)
As to the kind of experiment: Inhibition of human GAT2 expressed in Flp-In CHO cells assessed as reduction in [3H]GABA uptake at 100 uM incubated for 3 mins by liquid scintillation counting method relative to control.

The target in test [7] is T4, Sodium- and chloride-dependent GABA transporter 3 (Homo sapiens) (UniProt P48066).
T4 sequence (whole entry): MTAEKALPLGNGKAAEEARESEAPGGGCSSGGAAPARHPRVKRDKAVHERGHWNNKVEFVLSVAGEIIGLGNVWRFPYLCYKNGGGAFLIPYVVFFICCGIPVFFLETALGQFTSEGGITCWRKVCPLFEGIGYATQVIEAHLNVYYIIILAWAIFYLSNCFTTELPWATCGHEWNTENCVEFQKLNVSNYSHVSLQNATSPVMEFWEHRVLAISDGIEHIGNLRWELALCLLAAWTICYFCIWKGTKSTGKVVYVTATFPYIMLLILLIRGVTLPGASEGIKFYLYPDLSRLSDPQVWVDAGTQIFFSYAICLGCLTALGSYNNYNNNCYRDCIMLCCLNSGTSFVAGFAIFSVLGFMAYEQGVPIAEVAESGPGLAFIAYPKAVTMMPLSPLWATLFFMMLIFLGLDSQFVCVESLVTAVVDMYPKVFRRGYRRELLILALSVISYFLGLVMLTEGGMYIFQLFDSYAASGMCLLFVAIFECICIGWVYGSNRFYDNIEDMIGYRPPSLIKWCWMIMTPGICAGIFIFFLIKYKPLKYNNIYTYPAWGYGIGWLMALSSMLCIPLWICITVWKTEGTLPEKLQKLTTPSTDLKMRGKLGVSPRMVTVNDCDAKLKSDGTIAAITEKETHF
The test is described as follows: Inhibition of human GAT3 expressed in Flp-In CHO cells assessed as reduction in [3H]GABA uptake at 100 uM incubated for 3 mins by liquid scintillation counting method relative to control.

The target of test [8] is Gamma-aminobutyric acid receptor subunit alpha-4/beta-2/gamma-2 (Homo sapiens, UniProt P47870+P18507+P48169). The test is described as follows: Agonist activity at recombinant human GABA-A alpha4beta2gamma2S receptor transiently expressed in human tsA201 cells incubated for 30 mins and measured up to 90 secs by FMP dye based FLIPR membrane potential blue assay.

Activity calls are given as the source filed them. The rule behind the calls is not given here.

Sequence of Gamma-aminobutyric acid receptor subunit alpha-4/beta-2/gamma-2 (P47870 whole entry): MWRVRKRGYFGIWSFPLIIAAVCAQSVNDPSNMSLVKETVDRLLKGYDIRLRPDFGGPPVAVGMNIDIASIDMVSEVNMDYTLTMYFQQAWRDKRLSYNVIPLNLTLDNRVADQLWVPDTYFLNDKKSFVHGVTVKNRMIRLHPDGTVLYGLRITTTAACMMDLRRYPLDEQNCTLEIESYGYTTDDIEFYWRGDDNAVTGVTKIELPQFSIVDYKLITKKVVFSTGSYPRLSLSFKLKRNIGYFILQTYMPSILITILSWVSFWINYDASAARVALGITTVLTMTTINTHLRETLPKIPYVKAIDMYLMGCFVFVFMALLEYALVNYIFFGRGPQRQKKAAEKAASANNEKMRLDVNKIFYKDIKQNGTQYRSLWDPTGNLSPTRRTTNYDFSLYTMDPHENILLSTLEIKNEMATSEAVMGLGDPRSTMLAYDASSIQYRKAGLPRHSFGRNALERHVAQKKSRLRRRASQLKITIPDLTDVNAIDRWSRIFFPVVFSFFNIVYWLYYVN
Sequence of Gamma-aminobutyric acid receptor subunit alpha-4/beta-2/gamma-2 (P18507 whole entry): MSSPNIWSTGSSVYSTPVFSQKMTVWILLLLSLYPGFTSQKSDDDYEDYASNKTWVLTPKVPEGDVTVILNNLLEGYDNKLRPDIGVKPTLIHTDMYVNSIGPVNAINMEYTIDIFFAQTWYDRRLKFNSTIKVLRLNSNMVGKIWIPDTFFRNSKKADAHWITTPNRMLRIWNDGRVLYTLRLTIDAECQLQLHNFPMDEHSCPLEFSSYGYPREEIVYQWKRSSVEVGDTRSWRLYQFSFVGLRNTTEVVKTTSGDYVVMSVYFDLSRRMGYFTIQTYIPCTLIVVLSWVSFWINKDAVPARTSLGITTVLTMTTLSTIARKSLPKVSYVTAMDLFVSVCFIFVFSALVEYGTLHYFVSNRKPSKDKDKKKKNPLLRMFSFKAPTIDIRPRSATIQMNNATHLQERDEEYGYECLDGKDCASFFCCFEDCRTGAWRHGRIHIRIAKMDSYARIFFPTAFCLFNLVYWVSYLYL
Sequence of Gamma-aminobutyric acid receptor subunit alpha-4/beta-2/gamma-2 (P48169 whole entry): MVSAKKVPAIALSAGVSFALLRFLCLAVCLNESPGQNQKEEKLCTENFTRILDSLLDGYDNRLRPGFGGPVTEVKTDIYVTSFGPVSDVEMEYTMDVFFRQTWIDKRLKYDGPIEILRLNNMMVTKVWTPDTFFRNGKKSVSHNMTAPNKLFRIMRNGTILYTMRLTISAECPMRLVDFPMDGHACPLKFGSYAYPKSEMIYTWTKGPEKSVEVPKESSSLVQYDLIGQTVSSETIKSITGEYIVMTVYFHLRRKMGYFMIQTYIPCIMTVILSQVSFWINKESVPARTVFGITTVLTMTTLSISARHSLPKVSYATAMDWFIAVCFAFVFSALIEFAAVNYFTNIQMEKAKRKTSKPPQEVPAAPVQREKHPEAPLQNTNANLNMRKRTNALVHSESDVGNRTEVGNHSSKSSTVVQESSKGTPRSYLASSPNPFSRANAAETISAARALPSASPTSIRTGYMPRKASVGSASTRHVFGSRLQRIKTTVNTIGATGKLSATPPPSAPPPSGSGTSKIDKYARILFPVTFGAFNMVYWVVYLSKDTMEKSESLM
Sequence of Sodium- and chloride-dependent GABA transporter 1 (P30531 whole entry, looked up): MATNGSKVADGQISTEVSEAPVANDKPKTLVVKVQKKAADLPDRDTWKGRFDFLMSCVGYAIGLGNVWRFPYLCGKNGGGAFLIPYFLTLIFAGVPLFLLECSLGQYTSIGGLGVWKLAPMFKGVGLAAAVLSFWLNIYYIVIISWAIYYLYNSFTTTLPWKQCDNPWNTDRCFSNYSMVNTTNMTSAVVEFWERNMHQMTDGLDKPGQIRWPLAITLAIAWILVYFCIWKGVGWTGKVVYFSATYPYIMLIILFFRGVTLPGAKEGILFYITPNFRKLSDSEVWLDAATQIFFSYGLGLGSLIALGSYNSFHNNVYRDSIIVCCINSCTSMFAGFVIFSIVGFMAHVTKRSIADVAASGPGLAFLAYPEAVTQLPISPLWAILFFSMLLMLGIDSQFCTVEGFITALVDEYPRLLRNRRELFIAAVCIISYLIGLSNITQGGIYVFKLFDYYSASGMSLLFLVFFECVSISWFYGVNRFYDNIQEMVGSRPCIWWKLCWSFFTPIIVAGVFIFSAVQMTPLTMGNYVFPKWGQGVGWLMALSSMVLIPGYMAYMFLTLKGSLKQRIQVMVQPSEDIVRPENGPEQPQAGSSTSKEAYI
T1 sequence (P24046 whole entry): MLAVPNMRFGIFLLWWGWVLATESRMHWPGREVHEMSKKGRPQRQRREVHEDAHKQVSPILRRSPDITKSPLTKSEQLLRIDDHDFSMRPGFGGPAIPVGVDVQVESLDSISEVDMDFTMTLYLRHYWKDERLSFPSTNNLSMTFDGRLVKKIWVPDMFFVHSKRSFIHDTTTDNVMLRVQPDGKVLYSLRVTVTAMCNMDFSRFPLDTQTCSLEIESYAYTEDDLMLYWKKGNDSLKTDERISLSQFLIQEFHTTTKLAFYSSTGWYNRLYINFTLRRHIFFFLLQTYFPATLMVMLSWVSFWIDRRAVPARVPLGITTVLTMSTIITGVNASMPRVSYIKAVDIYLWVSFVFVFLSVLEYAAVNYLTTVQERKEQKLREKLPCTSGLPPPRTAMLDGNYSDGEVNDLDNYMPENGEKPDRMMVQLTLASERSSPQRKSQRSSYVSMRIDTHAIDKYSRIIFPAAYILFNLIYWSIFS

Turning to `NC1=NC(CC(=O)O)CS1` (stereo unspecified), the EC50 in test [1] (read-out: EC50) was 6.5 µM; in “cells” (read-out: EC50), 1.1 µM; in the test “cells” (read-out: pEC50 (converted)) it was 1.1 µM. The Rmax in the test filed under Homo sapiens is 95%; in test [2], 98%; in test [3], 43%. Also, the IC50 in test [4] was determined as 79.1 µM. Moreover, the inhibition in test [5], in test [6] and in test [7] was above 30% each time.
As to `O=C(O)C[C@H]1CCNC1`, the EC50 in [1] (read-out: EC50) was 8.4 µM; in “cells” (read-out: EC50), 5.6 µM; in “cells” (read-out: pEC50 (converted)), 5.62 µM. Further, the Rmax in the test listed under Homo sapiens came to 102%; in test [2] it was 99%; in test [3] it was 101%. In addition, in test [4], the IC50 was found to be 7.3 µM. Further, the inhibition in test [5], in test [6] and in test [7] was above 30% each time.
`CC(C(=O)O)C1CSC(N)=N1` (stereo in doubt; l-10a): the EC50 is 7.4 µM in test [1] (read-out: EC50), 30 µM in “cells” (read-out: EC50) and 30.2 µM in the test “cells” (read-out: pEC50 (converted)). Also, the IC50 in test [4] is above 100 µM.
Turning to `C[C@@H](C(=O)O)[C@H]1CSC(N)=N1` (relative stereo), the EC50 in “cells” (read-out: EC50) was 17 µM; in the test “cells” (read-out: pEC50 (converted)), 16.6 µM; in [8], “Not Active”. The Rmax in the test filed under Homo sapiens was determined as 96%; in test [2], 94%. Further, the pEC50 entry in test [8] is “inactive”. For the same compound, the IC50 in test [4] is above 100 µM. Besides, the inhibition in [5], in [6] and in test [7] was above 30% each time.
Take `C[C@@H]1SC(N)=N[C@@H]1CC(=O)O` (relative stereo): the EC50 in “cells” (read-out: EC50) is 54 µM; in “cells” (read-out: pEC50 (converted)), 55 µM; in [8], “Not Active”. The Rmax in the test filed under Homo sapiens was 76%; in test [2], 92%. In addition, in test [8], the pEC50 result is “inactive”. Further, in test [4], the IC50 is above 100 µM. The inhibition in test [5], in [6] and in test [7] was above 30% in each case.
Regarding `C[C@H]1SC(N)=N[C@@H]1CC(=O)O` (relative stereo), the EC50 result in [1] and in test [8] was “Not Active” each time. Besides, the pEC50 result in test [1] and in [8] was “inactive” each time. Also, the Rmax entry (in the test listed under Homo sapiens; in [3]) was “inactive” in each case. Further, the Rmax in test [2] worked out at 90%. The IC50 in test [4] was above 100 µM. Moreover, the inhibition in [5], in [6] and in test [7] was above 30% in each case.
As for `O=C(O)CC1CNC=N1` (stereo unspecified), the values for the EC50 (in test [1] (read-out: EC50); in the test “cells” (read-out: EC50); in the test “cells” (read-out: pEC50 (converted))) were 2.8 µM, 5.4 µM and 5.37 µM, respectively. The Rmax is 91% in the test filed under Homo sapiens, 88% in test [2] and 45% in test [3]. In addition, the IC50 in test [4] was determined as 2.9 µM. For the same compound, the inhibition in test [5], in test [6] and in [7] was above 30% throughout.
In the case of `O=C(O)C[C@@H]1CCNC1`, the EC50 result in test [1] and in [8] was “Not Active” each time. Also, the pEC50 entry in [1] and in test [8] was “inactive” in each case. For the same compound, the Rmax entry (in the test filed under Homo sapiens; in test [3]) was “inactive” each time. The Rmax in test [2] turned out to be 86%. In test [4], the IC50 was 16 µM. The inhibition in test [5], in test [6] and in [7] was above 30% throughout.
As for `CC(C(=O)O)C1CSC(N)=N1` (stereo in doubt; l-10b), the EC50 in [1] (read-out: EC50) is 1.2 µM; in test [8] it was “Not Active”. Moreover, in [4], the IC50 was above 100 µM.
`NC1=NC(CC(=O)O)CN1` (stereo unspecified): the EC50 was 3.8 µM in [1] (read-out: EC50), 12 µM in “cells” (read-out: EC50) and 11.5 µM in “cells” (read-out: pEC50 (converted)). In addition, the Rmax came to 105% in the test filed under Homo sapiens, 90% in [2] and 64% in test [3]. Also, in test [4], the IC50 was 132 µM. The inhibition in [5], in test [6] and in test [7] was above 30% throughout.
Regarding `C[C@@H](C(=O)O)[C@@H]1CSC(N)=N1` (relative stereo), the EC50 is 1.6 µM in test [1] (read-out: EC50), 36 µM in the test “cells” (read-out: EC50), 35.5 µM in “cells” (read-out: pEC50 (converted)) and “Not Active” in test [8]. Further, the Rmax in the test listed under Homo sapiens turned out to be 19%; in test [2], 81%; in [3], 35%. The pEC50 result in test [8] is “inactive”. Moreover, in test [4], the IC50 was above 100 µM. Moreover, the inhibition in test [5], in [6] and in [7] was above 30% each time.
